Experimental data reported in US20020055488A1, “Prevention and treatment of streptococcal and staphylococcal infection” (priority 2000, published 2002).

Legend:
[1] = tested on: Group A streptococcus (GAS); experiment: GAS attachment to murine keratinocyte cell line PAM2.12 with exogenous hyaluronic acid; assay type: cell-based, Streptococcus pyogenes; conditions: for inhibition of GAS attachment to PAM2.12 keratinocytes: polysaccharide added together with GAS, 45 minutes incubation
Description: For bacterial adherence assays, keratinocytes were seeded at 10^5 cells per well in collagen-coated tissue culture wells (Nalge Nunc International, Naperville, Ill.), incubated for 3 days at 34° C. in 8% CO2, washed, and overlaid with medium containing 10^6 CFU of GAS per well. After incubation for 1 hour at 34° C. in 8% CO2 the keratinocyte monolayers were washed twice to remove nonadherent bacteria, then the number of cell-associated bacteria was determined by quantitative culture after releasing the keratinocytes with trypsin and lysing them in sterile water, experiments testing the effects of exogenous hyaluronic acid on GAS adherence were performed using the mouse keratinocyte cell line, PAM 2.12 (Song, I. S. 2000, Exp. Dermatol. 9:42-52). Cells were seeded in collagen-coated tissue culture wells at 10^5 cells per well, cultured for 3 days at 37° C. in 5% CO2, then inoculated with 10^6 CFU of GAS per well in medium containing exogenous hyaluronic acid (from rooster comb, Sigma Chemicals, St. Louis, Mo.), no inhibitor, or a control polysaccharide, alginic acid, a high-molecular-weight polymer of mannuronic acid and guluronic acid (Protonal Durvillea Alginate, Pronova. Biopolymer, Inc., Portsmouth, N.H.). Cells were incubated for 45 minutes at 37° C. in 5% CO2, then processed for enumeration of adherent bacteria as described above. In experiments to test whether exogenous hyaluronic acid could promote dissociation of GAS attached to keratinocytes, GAS were allowed to attach to keratinocytes in the absence of inhibitor; […], no inhibitor, or alginic acid. After 45 minutes of incubation, the number of adherent bacteria was enumerated as described above.
To investigate the specificity of the interaction between the GAS capsule and CD44 on epithelial cells, the ability of exogenous hyaluronic acid to compete with GAS for binding to murine keratinocytes was examined. Addition of exogenous hyaluronic acid inhibited GAS attachment to the murine keratinocyte cell line PAM2.12 by >95% (P<0.03, FIG. 5). Alginic acid, another high molecular weight acidic polysaccharide, had no effect, supporting the hypothesis that adherence depends on a specific interaction between the GAS hyaluronic acid capsule and CD44.

[2] = tested on: Group A streptococcus (GAS); experiment: GAS pharyngeal colonization in mice after intranasal pretreatment with hyaluronic acid; assay type: in vivo, Streptococcus pyogenes; conditions: intranasal 20 μl of 1 mg/ml, 5 hours prior to GAS inoculation, compared to PBS or alginic acid pretreated, 3 days
Description: For pharyngeal colonization experiments, 4 to 6 week-old female mice were anesthetized by inhalation of methoxyflurane, then inoculated intranasally with approximately 5×10^6 CFU of GAS in 20 μl phosphate-buffered saline, pH 7.4. Throat swabs were collected from anesthetized mice daily and were plated on Todd-Hewitt-blood agar containing streptomycin 500 μg/ml to inhibit growth of normal flora. For some experiments, the bacterial inoculum was suspended in phosphate-buffered saline containing 50μg of mAb, either KM81, a rat anti-mouse CD44 mAb (Miyake, K. 1990, J. Exp. Med. 171:477-488), or 4H1, an isotype-matched control monoclonal antibody directed to Pseudomonas aeruginosa lipopolysaccharide (donated by Michael Preston, Brigham and Women's Hospital, Boston, Mass.). Both antibodies were purified by protein G affinity chromatography (GammaBind Plus Sepharose, Amersham Pharmacia Biotech, Piscataway, N.J.) prior to use.
Differences in attachment of GAS to keratinocytes were evaluated Using the Mann Whitney U test (Instat version 1.12, GraphPad Software, Inc. San Diego, Calif.). Repeated measures logistic regression was used to test for the effect of anti-CD44 mAb or erogenous hyaluronic acid treatment on the proportion of mice with positive throat cultures over three days of observation (Zeger, S. L. et al. 1986, Biometrics. 42:121-130). […]

[3] = tested on: Group A Streptococcus (GAS, strain 950771); experiment: Bacterial binding to human keratinocyte monolayers after pre-incubation, GAS; assay type: cell-based, Streptococcus pyogenes; conditions: 10 bacteria per keratinocyte, 1 hour, alginate control
Description: (§1) Keratinocyte monolayers were pre-incubated with alginate (AL, solid bars) or hyaluronic cid (HA, hatched bars) prior to surface inoculation with either Group A Streptococcus (GAS, strain 950771), Group B Streptococcus (GBS, strain 515), Streptococcus pneumoniae (S. pneumo, type 6), or Staphylococcus aureus (S. aureus, type 8) at a multiplicity of infection of 10 bacteria per keratinocyte for 1 hour.

[4] = tested on: Group B Streptococcus (GBS, strain 515); experiment: Bacterial binding to human keratinocyte monolayers after pre-incubation, GBS; assay type: cell-based; conditions: 10 bacteria per keratinocyte, 1 hour, alginate control
Description: as §1

[5] = tested on: Streptococcus pneumoniae (S. pneumo, type 6); experiment: Bacterial binding to human keratinocyte monolayers after pre-incubation, S. pneumoniae; assay type: cell-based; conditions: 10 bacteria per keratinocyte, 1 hour, alginate control
Description: as §1

[6] = tested on: Staphylococcus aureus (S. aureus, type 8); experiment: Bacterial binding to human keratinocyte monolayers after pre-incubation, S. aureus; assay type: cell-based; conditions: 10 bacteria per keratinocyte, 1 hour, alginate control
Description: as §1

Row | Substance | inhibition of GAS attachment to PAM2.12 keratinocytes [1] | reduction of GAS attachment to keratinocytes ([1]; addition of hyaluronic acid delayed for 2 hours) | reduction in bacterial attachment to keratinocytes ([1]; hyaluronic acid added up to 45 minutes after adding GAS) | reduction of GAS pharyngeal colonization (positive throat cultures) [2] | inhibition of binding of GAS to human keratinocytes [3] | inhibition of binding of GBS to human keratinocytes [4] | inhibition of binding of S. pneumoniae to human keratinocytes [5] | inhibition of binding of S. aureus to human keratinocytes [6]
1 | alginic acid | had no effect | – | – | – | – | – | – | –
2 | hyaluronic acid | > 95% | 70-80% | > 90% | 60 to 80% | more than 80% | more than 80% | more than 80% | more than 80%
